Measured values as given in US20190117634A1, “Treatment of Vulvodynia” (Gruenenthal GmbH, priority 2017, published 2019).

Assay: in vitro permeation/penetration in porcine vaginal tissue (Franz diffusion cell)
Type: in vitro ADME
Procedure: The permeation/penetration of the formulation according to Example 1 in porcine vaginal tissue was assessed by in vitro experiments.
The in vitro experiments involved the use of a Franz diffusion cell designed to mimic the physiological and anatomical conditions of porcine vaginal tissue in situ. Porcine vaginal tissue skin was positioned between the two halves of a Franz diffusion cell with the vaginal epithelium facing the donor compartment allowing for drug product application. The other side of the porcine vaginal tissue skin faced a receiver fluid comprising 2% w/v Tween 80 in 20% v/v PEG 400 in water.
Prior to dosing of the formulation on the tissue, the integrity of the tissue was assessed as follows: • (i) Porcine vaginal tissue was mounted between the donor and receiver compartments and the cells were sealed together using Parafilm®. • (ii) The donor and receiver chambers were filled with PBS solution and a small magnetic follower was placed in the receiver compartment. • (iii) Cells were equilibrated in a water bath, ensuring a membrane temperature of 32° C. for 30 min. • (iv) The electrodes of the ISO-TECH LCR821 Meter were placed in the receiver chamber through the sampling arm and the donor chamber and the LCR was set at 100 Hz and set to ‘R’ for resistance. • (v) The resistance of the tissue in each Franz cell was measured using a ISO-TECH LCR821 Meter (SOP 3174). Cells with a resistance below the acceptable limits were discarded and remounted.
Following the tissue integrity testing, the PBS solutions were removed from each compartment and the receiver compartments of cells passing the resistance criteria were filled with receiver fluid. Each cell was then equilibrated to ensure a surface temperature of 32° C. (external skin surface temperature) for at least 30 min prior to dosing. An additional Franz cell was also mounted but not dosed (to act as a blank) to assess interference with sample quantification.
A positive displacement pipette was used to apply 6-8 mg of the formulation of table 1 to the tissue surface. Prior to application the weight of each test formulation was verified by weighing the amount dispensed by the positive displacement pipette into an empty vial (n=6).
Receiver fluid (200 μL) was removed at the following time points t=0, 1, 2, 4, 6 and 24 h and transferred to a HPLC vial for analysis. Fresh pre-warmed (37° C.) receiver fluid was used to replace the receiver fluid removed at each time point. Following the 24 h time point, remaining receiver fluid was removed from the Franz cells and the drug was recovered. […]

[1] = formulation of Example 1, after 24 h, Franz cell

Compound: CN(C)[C@]1(c2cccc(F)c2)CC[C@]2(CC1)c1[nH]c3ccccc3c1CCN2C(=O)/C=C/c1ccccc1 [pharmacologically active compound, cis-(E)-4-(3-fluorophenyl)-2′,3′,4′,9′-tetrahydro-N,N-dimethyl-2′-(1-oxo-3-phenyl-2-propenyl)-spiro[cyclohexane-1,1′[1H]-pyrido[3,4-b]indol]-4-amine]
- Mean recovery of the pharmacologically active compound from the epithelium of porcine vaginal tissue (formulation of Example 1 (2.60 wt.-% compound), 6-8 mg applied, after 24 h, Franz cell, 32° C.): 9.72 μg
- Mean recovery of the pharmacologically active compound from the epithelium of porcine vaginal tissue [1]: 810.21 μg/mL
- Total concentration presented to vaginal epithelium [1]: 1596.04 µM
- permeation into the epithelium of porcine vaginal tissue (in words) (formulation of Example 1, in vitro, 24 h): permeates into the epithelium of porcine vaginal tissue
